Experiments:
Format in all cases: physicochemical
[1] = Racemization of L-ACL with NiCl2 and base from ion exchange resin (Example 4)
Description: a. A 20 ml ethanol solution containing 8 mmol (D,L-ACL)3 NiCl2 and 8 mmol D,L-ACL was passed through a strongly basic [quaternary ammonium hydroxide type (ANGA-542*)] ion exchange column in about 1 hour. The complex solution was followed by 15 ml ethanol and the combined eluent brought to 50 ml in a volumetric flask.
A reaction solution was prepared from 0.518g (2 mmol) of 50% L-ACL (88% optically pure) in ethanol, 1.13g (4.4 mmol) 50% D,L-ACL in ethanol and 2.48 ml 0.645 M in NiCl2.H2 O in ethanol. This was brought to reflux and 2.5 ml of the solution described above was added. The final quantities thus are total ACL 8 mmol, Ni^+^2, 2 mmol, ^-OH (free or bound to Ni^+^2), 0.3 mmol and Cl^-. 3.7 Mmol, in a total volume of 6.7 ml.
b. A 10 ml sample of 0.90 M NiCl2. H2 O in ethanol, was passed through a weakly basic ion exchange resin (IR-45, supplied by Rohm and Haas Company). The eluent had pH 5.5 (measured with a glass electrode in ethanol; the pH of untreated NiCl2 solution was about 3.7). A 1 ml aliquot of the eluent, containing 0.15 m atoms of Ni^+^+, was mixed with 78 mg (0.60 mmols) of L-ACL in 1 ml methanol. The mixture was heated in a sealed vial at 80°C. for 30 minutes.

[2] = Racemization of L-ACL in ACL/NiCl2 solution with sodium methoxide (Example 1, Table 1); details: 0.20 M NiCl2
Description: A sample of 0.702g. […] The molar ratio of ACL to NiCl2 in this solution is 3.5. […] Samples of 2.0 ml each of the solution were sealed and placed in a 60°C. (50° and 40°) bath. At different time intervals the samples were taken from the bath to determine the extent of racemization of L-ACL. To this end each sample was quenched and adjusted to 5.0 ml with 1N.HCl. […] The latter correlation is indicative of the importance of rendering Ni^+^+ coordinately saturated. It should be noted that even at temperatures as low as 40°C. suitable reaction rates are obtained and, in general, a temperature range of about 40° to about 95°C. may be used.

[3] = Racemization of L-ACL.HCl/L-ACL with catalysts (Examples 13-42, Table IV); details: 15 minutes at 70°C, Cu^II (5-nitrosalicylaldehyde)2, H2O/dimethylformamide 20/80
Description: A solution containing 0.160g (1.25 mmol) L-ACL, 0.206g (1.25 mmol) L-ACL.HCl and […] of Cu^II (5-nitrosalicylaldehyde)2 in 20/80 (v/v) H2 O/dimethylformamide (10 ml overall volume) was heated for 15 minutes at 70°C.
Following the procedure of Example 13, racemization of L-ACL.HCl was conducted in the presence of various catalysts and under various conditions of temperature and concentration; the data is summarized in Table IV.

Structure (SMILES)	extent of racemization ([1]; 80°C, 30 minutes, NiCl2 eluent from IR-45 resin, methanol)	t1/2 of racemization ([1]; ethanol, reflux (~80°C), NiCl2, base from ANGA-542 resin) [h]	Racemization Rate t1/2 ([2]; ACL/NiCl2 mole ratio 3.5, Ethanol, 60°C) [h]	Racemization Rate t1/2 ([2]; ACL/NiCl2 mole ratio 3.5, Methanol, 40°C) [h]	Racemization Rate t1/2 ([2]; ACL/NiCl2 mole ratio 3.5, Methanol, 50°C) [h]	Racemization Rate t1/2 ([2]; ACL/NiCl2 mole ratio 4, Ethanol, 60°C) [h]	Racemization Rate t1/2 ([2]; ACL/NiCl2 mole ratio 4, Methanol, 40°C) [h]	Racemization Rate t1/2 ([2]; ACL/NiCl2 mole ratio 4, Methanol, 50°C) [h]	Racemization Rate t1/2 ([2]; ACL/NiCl2 mole ratio 5, Ethanol, 60°C) [h]	Racemization Rate t1/2 ([2]; ACL/NiCl2 mole ratio 5, Methanol, 40°C) [h]	Racemization Rate t1/2 ([2]; ACL/NiCl2 mole ratio 5, Methanol, 50°C) [h]	Racemization Rate t1/2 ([2]; ACL/NiCl2 mole ratio 6, Ethanol, 60°C) [h]	Racemization Rate t1/2 ([2]; ACL/NiCl2 mole ratio 6, Methanol, 40°C) [h]	Racemization Rate t1/2 ([2]; ACL/NiCl2 mole ratio 6, Methanol, 50°C) [h]	extent of racemization [3]
N[C@H]1CCCCNC1=O [L-ACL, L-α-amino-ε-caprolactam]	completely racemized	0.175	1.17	16.73	5.67	0.717	12.8	4.33	0.433	9.72	2.7	0.367	10.2	2.83	–
Cl.N[C@H]1CCCCNC1=O [L-ACL.HCl, L-α-amino-ε-caprolactam hydrochloride]	–	–	–	–	–	–	–	–	–	–	–	–	–	–	complete racemization
